Source: US20080188483A1, “Compounds and Compositions as Protein Kinase Inhibitors” (IRM LLC, priority 2006, published 2008)

Experiments:
purified FGFR3 (Upstate) = biological target: T1, purified FGFR3 (Upstate) (Homo sapiens, UniProt P22607); test: FGFR3 enzymatic assay (HTRF); format: biochemical
T1 construct: purchased Upstate
Protocol: Kinase activity assay with purified FGFR3 (Upstate) is carried out in a final volume of 10 μL containing 0.25 μg/mL of enzyme in kinase buffer (30 mM Tris-HCl pH7.5, 15 mM MgCl2, 4.5 mM MnCl2, 15 μM Na3VO4 and 50 μg/mL BSA), and substrates (5 μg/mL biotin-poly-EY(Glu, Tyr) (CIS-US, Inc.) and 3 μM ATP). Two solutions are made: the first solution of 5 μl contains the FGFR3 enzyme in kinase buffer was first dispensed into 384-format ProxiPlate® (Perkin-Elmer) followed by adding 50 nL of compounds dissolved in DMSO, then 5 μl of second solution contains the substrate (poly-EY) and ATP in kinase buffer was added to each wells. The reactions are incubated at room temperature for one hour, stopped by adding 10 μL of HTRF detection mixture, which contains 30 mM Tris-HCl pH7.5, 0.5 M KF, 50 mM ETDA, 0.2 mg/mL BSA, 15 μg/mL streptavidin-XL665 (CIS-US, Inc.) and 150 ng/mL cryptate conjugated anti-phosphotyrosine antibody (CIS-US, Inc.). After one hour of room temperature incubation to allow for streptavidin-biotin interaction, time resolved florescent signals are read on Analyst GT (Molecular Devices Corp.). IC50 values are calculated by linear regression analysis of the percentage inhibition of each compound at 12 concentrations (1:3 dilution from 50 μM to 0.28 nM).

[1] = biological target: T2, FGFR3 (Ba/F3-TEL-FGFR3 cells) (Homo sapiens, UniProt P22607); test: FGFR3 cellular assay (Ba/F3-TEL-FGFR3 proliferation); format: cell-based
T2 construct: expressed in transfected cells; host or cells: Ba/F3; the other entry of the earlier key: ETV6 (P41212, Transcription factor ETV6)
T2 sequence (P22607 472-761 limits assumed): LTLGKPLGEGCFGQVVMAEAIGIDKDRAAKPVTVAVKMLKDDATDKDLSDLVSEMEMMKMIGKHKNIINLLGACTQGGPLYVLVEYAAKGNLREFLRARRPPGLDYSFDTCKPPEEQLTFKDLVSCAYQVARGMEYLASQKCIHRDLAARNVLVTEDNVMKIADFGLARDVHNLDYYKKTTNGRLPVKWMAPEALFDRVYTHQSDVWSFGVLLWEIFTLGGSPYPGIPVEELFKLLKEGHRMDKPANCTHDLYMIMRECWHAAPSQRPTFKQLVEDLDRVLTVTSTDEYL
Protocol: Compounds of the invention are tested for their ability to inhibit transformed Ba/F3-TEL-FGFR3 cells proliferation, which is depended on FGFR3 cellular kinase activity. Ba/F3-TEL-FGFR3 are cultured up to 800,000 cells/mL in suspension, with RPMI 1640 supplemented with 10% fetal bovine serum as the culture medium. Cells are dispensed into 384-well format plate at 5000 cell/well in 50 μL culture medium. Compounds of the invention are dissolved and diluted in dimethylsulfoxide (DMSO). Twelve points 1:3 serial dilutions are made into DMSO to create concentrations gradient ranging typically from 10 mM to 0.05 μM. Cells are added with 50 nL of diluted compounds and incubated for 48 hours in cell culture incubator. AlamarBlue® (TREK Diagnostic Systems), which can be used to monitor the reducing environment created by proliferating cells, are added to cells at final concentration of 10%. After additional four hours of incubation in a 37° C. cell culture incubator, fluorescence signals from reduced AlamarBlue® (Excitation at 530 nm, Emission at 580 nm) are quantified on Analyst GT (Molecular Devices Corp.). IC50 values are calculated by linear regression analysis of the percentage inhibition of each compound at 12 concentrations.

T1 sequence (P22607 23-806): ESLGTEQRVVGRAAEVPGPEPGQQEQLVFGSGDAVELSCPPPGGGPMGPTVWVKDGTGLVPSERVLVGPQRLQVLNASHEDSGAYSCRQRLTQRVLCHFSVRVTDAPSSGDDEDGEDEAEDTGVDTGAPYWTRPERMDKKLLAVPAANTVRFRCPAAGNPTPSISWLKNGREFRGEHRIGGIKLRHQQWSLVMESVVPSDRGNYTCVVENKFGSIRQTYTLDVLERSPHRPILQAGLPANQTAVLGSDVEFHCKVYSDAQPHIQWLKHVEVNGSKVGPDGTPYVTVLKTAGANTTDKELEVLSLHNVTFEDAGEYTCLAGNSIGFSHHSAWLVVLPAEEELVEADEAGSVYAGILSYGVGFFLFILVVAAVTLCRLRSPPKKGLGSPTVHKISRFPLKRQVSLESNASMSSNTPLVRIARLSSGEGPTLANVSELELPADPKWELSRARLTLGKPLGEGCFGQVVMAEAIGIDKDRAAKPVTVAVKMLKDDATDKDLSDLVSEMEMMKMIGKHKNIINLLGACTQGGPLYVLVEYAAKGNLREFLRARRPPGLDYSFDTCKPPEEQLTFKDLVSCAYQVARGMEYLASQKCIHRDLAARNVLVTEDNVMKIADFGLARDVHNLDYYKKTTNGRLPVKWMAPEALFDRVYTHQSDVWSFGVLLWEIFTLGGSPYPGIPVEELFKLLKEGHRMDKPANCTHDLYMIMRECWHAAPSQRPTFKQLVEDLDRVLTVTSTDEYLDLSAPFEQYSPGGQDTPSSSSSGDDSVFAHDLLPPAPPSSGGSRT

CCN1CCN(Cc2ccc(NC(=O)c3cc(Nc4nccn4-c4ncnc5[nH]ccc45)cc(OC)c3)cc2C(F)(F)F)CC1 [Compound 9, N-[4-(4-ethyl-piperazin-1-ylmethyl)-3-trifluoromethyl-phenyl]-3-methoxy-5-[1-(7H-pyrrolo[2,3-d]pyrimidin-4-yl)-1H-imidazol-2-ylamino]-benzamide]
IC50 (purified FGFR3 (Upstate)): 4 nM
IC50 [1]: 40 nM
